Measurements from patent US10894787B2, “Modulators of the GPR119 receptor and the treatment of disorders related thereto” (Arena Pharmaceuticals, Inc., priority 2010, dated 2021).
Read-outs that look alike come from different tables or passages of the source.

Key:
[1] = combined administration with a DPP-IV inhibitor, cited from earlier work
[2] = test system: liver microsomes; assay: In vitro metabolism of Compound 1 in liver microsomes from various species; type: in vitro ADME, mouse, rat, dog, monkey and human; conditions: Compound 1 incubated with 0.25 mg/mL microsomal protein, pH 7.4; relative to M2 and M3
Procedure: (§1) Compound 1 was incubated with mouse, rat, dog, monkey and human liver microsomal protein (0.25 mg/mL final concentration) in 100 mM potassium phosphate buffer containing 3 mM MgCl2 and 1 mM EDTA (pH 7.4) for over a period of time in the presence or absence of (3-NADPH. The samples were then processed and the supernatant was analyzed by LC-MS/MS for the identification and quantification of the metabolites.

[3] = molecular target: T1, GPR119 receptor (Homo sapiens, UniProt Q8TDV5); assay: HTRF assay for direct cAMP measurement in CHO-K1 cells stably expressing the GPR119 receptor; type: cell-based; conditions: for EC50: CHO-K1 cells stably expressing GPR119; for Pharmacological activity of metabolites (HTRF assay): metabolites of Compound 1
T1 construct: expressed in transfected cells
T1 sequence (Q8TDV5 2-335 limits assumed): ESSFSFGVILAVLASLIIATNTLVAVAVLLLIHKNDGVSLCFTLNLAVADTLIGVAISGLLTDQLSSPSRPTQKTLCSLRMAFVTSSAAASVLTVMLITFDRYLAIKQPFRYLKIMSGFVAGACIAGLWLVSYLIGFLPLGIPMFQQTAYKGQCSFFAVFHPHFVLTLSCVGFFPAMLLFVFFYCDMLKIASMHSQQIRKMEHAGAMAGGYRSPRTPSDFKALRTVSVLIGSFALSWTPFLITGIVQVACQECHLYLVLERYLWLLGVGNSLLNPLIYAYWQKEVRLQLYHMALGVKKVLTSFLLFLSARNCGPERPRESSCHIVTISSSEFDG
Procedure: The GPR119 agonist, Compound 1, was evaluated in an HTRF® cAMP detection assay according to the manufacturer's instructions (Cisbio, cAMP Dynamic 2 Assay Kit; #62AM4PEJ) using CHO-K1 cells stably expressing the GPR119 receptor. Briefly, CHO-K1 cells were transduced with a lentiviral vector encoding the nucleotide sequence of GPR119 (NCBI mRNA and protein reference sequences: NM_178471.2 & NP_848566, (GPR119 has also been referred to as Glucose-Dependent Insulinotropic Receptor (GDIR)). The N-terminus of the GPR119 nucleotide sequence was modified to replace the first, methionine-coding codon with a nucleotide sequence coding for a standard, nine amino acid, hemagglutinin tag. Following transduction, cells expressing the GPR119 receptor were isolated and a single clone was isolated following standard dilution-cloning procedures. On the day of the assay, cultured CHO-GPR119 cells were harvested, suspended in assay buffer and plated into 384-well assay plates (PerkinElmer Proxiplate #6008280) at a density of 2,000 cells per well. A cAMP standard curve was included on each plate. Test compounds were solubilized in DMSO, serially diluted in DMSO and then diluted in assay buffer before adding to the cells. Test compounds were evaluated in triplicate, using 10-point, 5-fold serial dilutions starting at 10 μM. The final DMSO concentration in the assay was 0.5%. Compounds and cells were incubated for 1 h at room temperature and then detection reagents were added to each well (cAMP-D2 in cell lysis buffer, followed by europium cryptate-labeled anti-cAMP antibody). Plates were then incubated at room temperature for 1 h prior to reading. Time-resolved fluorescence measurements were collected on PerkinElmer Envision™ or BMG Pherastar™ microplate readers. The compound N-(2-fluoro-4-(methylsulfonyl)phenyl)-6-(4-(3-isopropyl-1,2,4-oxadiazol-5-yl)piperidin-1-yl)-5-nitropyrimidin-4-amine was used as a positive control in each runset while assay buffer containing 0.5% DMSO was used as the negative control.

[4] = In vivo metabolism of Compound 1: metabolites in plasma samples from various species (LC/MS/MS); design: species or system mouse, rat, dog and monkey; conditions: all species, after dosing Compound 1
Procedure: (§2) Metabolites of Compound 1 were identified in plasma samples collected from different pharmacokinetic studies in various species.
(§3) Four species, mouse, rat, dog and monkey were dosed with Compound 1, and plasma samples were collected at predetermined time points from each of the species according to specific study protocols. The samples were then processed and subjected to the LC/MS/MS analysis for the identification and quantification of the metabolites. Three metabolites, designated M1 (Compound 2), M2 (Compound 3), and M3 were identified in plasma samples from various species. The M1 metabolite was identified as a mono-N-demethylation of Compound 1, and the M2 metabolite was a di-N-demethylation product of Compound 1. The third metabolite M3 (i.e., 3-fluoro-4-(5-fluoro-6-(4-(3-(2-fluoropropan-2-yl)-1,2,4-oxadiazol-5-yl)piperidin-1-yl)pyrimidin-4-ylamino)benzoic acid, see below) was determined as a carboxylic acid of Compound 1.

[5] = test system: dog liver microsomes; assay: In vitro metabolism of Compound 1 in dog liver microsomes; type: in vitro ADME; conditions: Compound 1 incubated with 0.25 mg/mL microsomal protein, pH 7.4
Procedure: as §1

[6] = In vivo metabolism of Compound 1: metabolites in dog plasma samples (LC/MS/MS); conditions: dog plasma after dosing Compound 1; under the analytical conditions used
Procedure: as §2, §3

[7] = human studies; infusion; over 24 hours; cited from earlier work
[8] = 1 h incubation at room temperature, read-out: EC50, HTRF cAMP assay

Which “Plasma GLP-1 levels” value ([1]; greater than either agent alone) does the source give for `CC(C)c1noc(C2CCN(c3ncnc(Nc4ccc(S(C)(=O)=O)cc4F)c3[N+](=O)[O-])CC2)n1` [Compound B111, (2-Fluoro-4-methanesulfonyl-phenyl)-{6-[4-(3-isopropyl-[1,2,4]oxadiazol-5-yl)-piperidin-1-yl]-5-nitro-pyrimidin-4-yl}-amine] here?
Its value is “acutely increased plasma GLP-1 levels”.

What about the Glucose tolerance ([1]; significantly greater degree than either agent alone) of the same molecule?
Its Glucose tolerance is “improved glucose tolerance”.

Which “Rate of formation of metabolite in liver microsomal incubation” value [2] does the source give for `CNC(=O)c1ccc(Nc2ncnc(N3CCC(c4nc(C(C)(C)F)no4)CC3)c2F)c(F)c1` [Compound 2, 3-fluoro-4-(5-fluoro-6-(4-(3-(2-fluoropropan-2-yl)-1,2,4-oxadiazol-5-yl)piperidin-1-yl)pyrimidin-4-ylamino)-N-methylbenzamide] here?
The value was “highest”.

And the EC50 [3, 8]?
The EC50 was 27 nM.

What about the “Pharmacological activity of metabolites (HTRF assay)” value [3] of the same molecule?
Its value is “pharmacologically active”.

Which results are given for `CC(C)(F)c1noc(C2CCN(c3ncnc(Nc4ccc(C(=O)O)cc4F)c3F)CC2)n1` [Compound M3, 3-fluoro-4-(5-fluoro-6-(4-(3-(2-fluoropropan-2-yl)-1,2,4-oxadiazol-5-yl)piperidin-1-yl)pyrimidin-4-ylamino)benzoic acid]?
Circulating metabolite status [4]: major circulating metabolite; EC50 ([3]; read-out: EC50, HTRF assay): 100000 nM; Pharmacological activity of metabolites (HTRF assay) [3]: substantially little activity

Which results are given for `CC(C)(F)c1noc(C2CCN(c3ncnc(Nc4ccc(C(N)=O)cc4F)c3F)CC2)n1` [Compound 3, 3-fluoro-4-(5-fluoro-6-(4-(3-(2-fluoropropan-2-yl)-1,2,4-oxadiazol-5-yl)piperidin-1-yl)pyrimidin-4-ylamino)benzamide]?
Formation of metabolite in dog liver microsomes [5]: negligible; Metabolite observed in dog plasma samples [6]: not observed; EC50 [3, 8]: 28.2 nM; Pharmacological activity of metabolites (HTRF assay) [3]: pharmacologically active

Which “Reduction of food intake” value [7] does the source give for “PYY3-36: generated from PYY1-36 by cleavage of the N-terminal Tyr and Pro residues by DPP-IV; Y2R agonist” here?
Its value is 33%.
